Measured values reported in patent US4318898A, “Technetium-99m-labelled (2,4,5-trimethylacetanilido)-iminodiacetate for liver function diagnosis, chloroacetric acid (2,4,5-trimethylanilide), (2,4,5-trimethylacetanilido)-iminodiacetate, and process for their preparation” (Hoechst Aktiengesellschaft, priority 1978, dated 1982).

What was measured:
[1] = Gamma-camera observation of activity distribution over time in rabbit after injection into the ear vein; type: in vivo; conditions: for livermax (time of maximal liver activity after the injection) / livermax/2 (half-life of the activity in the liver, outside of the gallbladder): rabbit, 0.5 mCi, ear vein, Tc-99m labelled
Procedure: (1) 0.5 mCi of the labelled diagnostic agent ia administered to a rabbit by injection into the ear vein, and the distribution of the activity is observed during the passage of time by means of a gamma-camera connected with a data processing system. The progress of the activity in defined organs is thus observed. The following parameters are determined:
1. livermax =time of maximal liver activity after the injection
2. livermax/2 =half-life of the activity in the liver (outside of the gallbladder).
1.8 g (2,4,5-trimethylacetanilido)-iminodiacetic acid is dissolved in 20 ml of 0.5 N sodium hydroxide solution and 36 mg of SnCl2.2H2 O (dissolved in 6 ml of 0.1 N hydrochloric acid) are added. The batch is stirred for 5 minutes, the pH is adjusted to 6 by means of hydrochloric acid, the batch is brought to 60 ml and divided into 1 ml portions. 10 mCi of Tc-99m pertechnetate in 4 ml of physiological saline solution are added to such a portion. […] All operations were carried out under a protective N2 gas atmosphere.

[2] = Distribution of radioactivity in the organs of rats after injection into the thigh vein; type: in vivo, rat; conditions: for radioactivity in intestines / radioactivity in kidneys / radioactivity in liver: rat, 30 μCi, thigh vein
Procedure: 2. 30 μCi each of the labelled diagnostic agent are administered to groups of 12 rats each by injection into the thigh vein. Subsequently, 3 animals each are killed after 5, 10, 20 and 30 minutes, and the distribution of radioactivity in the organs is determined.
After stirring for 5 minutes, the pH is adjusted to 6 by means of hydrochloric acid, the batch is brought to 233 ml, divided into 1 ml portions in beaded rim vials, and frozen with liquid nitrogen. Subsequently, the product is lyophilized, the vials are filled with nitrogen and closed. After a storage time of 60 days, 0.3 mCi to Tc-99m pertechnetate in 10 ml of physiological saline solution is injected into the closed vials. After a reaction time of 20 minutes, 0.5 ml each of the diagnostic agent so obtained is administered intravenously to rats (typical test results are indicated in Table 2).

[3] = tested on: rats; assay: Toxicity (dosis tolerata maxima, LD50) in rats; type: in vivo
[4] = tested on: mice; assay: Toxicity (dosis tolerata maxima, LD50) in mice; type: in vivo
[5] = compared to the hitherto known products

livermax (time of maximal liver activity after the injection) [1]	livermax/2 (half-life of the activity in the liver, outside of the gallbladder) [1]	radioactivity in intestines ([2]; 5 minutes)	radioactivity in kidneys ([2]; 5 minutes)	radioactivity in liver ([2]; 5 minutes)	radioactivity in intestines ([2]; 10 minutes)	radioactivity in kidneys ([2]; 10 minutes)	radioactivity in liver ([2]; 10 minutes)	radioactivity in intestines ([2]; 20 minutes)	radioactivity in kidneys ([2]; 20 minutes)	radioactivity in liver ([2]; 20 minutes)	radioactivity in intestines ([2]; 30 minutes)	radioactivity in kidneys ([2]; 30 minutes)	radioactivity in liver ([2]; 30 minutes)	Molecule	passage through the liver [1, 5]	activity concentration in the kidney [2, 5]	LD50 [3]	dosis tolerata maxima [3]	LD50 [4]	dosis tolerata maxima [4]
4.6 min	15.3 min	60.9%	4.4%	10.0%	65.3%	4.4%	7.0%	71.9%	4.4%	4.4%	72.2%	3.8%	4.4%	CC(C)c1cccc(C(C)C)c1NC(=O)CN(CC(=O)O)CC(=O)O [2,6-diisopropyl-, (2,6-diisopropylacetanilido)-iminodiacetate]	–	–	–	–	–	–
6.8 min	15.7 min	71.2%	4.3%	6.9%	79.9%	4.2%	3.4%	81.7%	3.6%	1.6%	81.8%	3.4%	1.5%	^99m Tc-(2,6-diethylacetanilido)-iminodiacetate [EHIDA]	–	–	–	–	–	–

Further lines, the molecule ahead of its results:

Molecule	livermax (time of maximal liver activity after the injection) [1]	livermax/2 (half-life of the activity in the liver, outside of the gallbladder) [1]	radioactivity in intestines ([2]; 5 minutes)	radioactivity in kidneys ([2]; 5 minutes)	radioactivity in liver ([2]; 5 minutes)	radioactivity in intestines ([2]; 10 minutes)	radioactivity in kidneys ([2]; 10 minutes)	radioactivity in liver ([2]; 10 minutes)	radioactivity in intestines ([2]; 20 minutes)	radioactivity in kidneys ([2]; 20 minutes)	radioactivity in liver ([2]; 20 minutes)	radioactivity in intestines ([2]; 30 minutes)	radioactivity in kidneys ([2]; 30 minutes)	radioactivity in liver ([2]; 30 minutes)	passage through the liver [1, 5]	activity concentration in the kidney [2, 5]	LD50 [3]	dosis tolerata maxima [3]	LD50 [4]	dosis tolerata maxima [4]
Cc1cc(C)c(NC(=O)CN(CC(=O)O)CC(=O)O)c(C)c1 [2,4,6-trimethyl-, (2,4,6-trimethylacetanilido)iminodiacetate]	4.2 min	10.0 min	57.0%	3.6%	23.5%	66.0%	3.8%	12.1%	79.2%	3.8%	2.9%	81.0%	3.3%	1.6%	–	–	–	–	–	–
Cc1cc(C)c(NC(=O)CN(CC(=O)O)CC(=O)O)cc1C [TMIDA, (2,4,5-trimethylacetanilido)-iminodiacetate]	2.6 min	7.7 min	56.8%	3.3%	19.1%	68.8%	3.1%	9.6%	81.1%	2.5%	2.4%	82.0%	2.1%	1.2%	more rapid passage through the liver	decreased activity concentration in the kidney	255 mg per kg of test animal	189 mg/kg of body weight	246 mg per kg of test animal	189 mg/kg of body weight
^99m Tc-(2,6-dimethylacetanilido)-iminodiacetate [HIDA]	5.7 min	8.2 min	43.2%	7.4%	21.7%	65.9%	7.4%	9.6%	80.8%	5.8%	2.2%	79.7%	4.9%	1.0%	–	–	–	–	–	–
